MIC data for 3 molecules are collected here from US20100029604A1, “ANTIBACTERIAL COMBINATION AND ITS USE” (priority 2007, published 2010).

Like-named read-outs stand apart in the source and are kept apart here. A value given as a limit tells only on which side of the number the result lay.

One assay relates to C. freundii SHV-5. Put plainly: Synergy MIC, inhibitor at 4 μg/mL (Example 4). The assay is classed as cell-based. The conditions noted are these: SHV-5, class A, inhibitor constant 4 μg/mL.
The next assay relates to Escherichia coli TEM-30. The experiment in a line: MIC, characterised β-lactamase producing strain (Example 5, Tables 5-7). The conditions noted are these: Table 6, LK-157 at constant 4 μg/mL in combination. The assay is classed as cell-based.
Another assay deals with E. cloacae SHV-12. Put plainly: Synergy MIC, inhibitor at 4 μg/mL (Example 3). Type of assay: cell-based. The conditions noted are these: β-lactamase SHV-12 (Table 3 r11), inhibitor constant 4 μg/mL. Here is the method:
(§1) Stock solutions of the test compounds and control antibiotics were prepared in distilled water according to the NCCLS guidelines [Methods for dilution antimicrobial tests for bacteria that grow aerobically. NCCLS document M7-A5; 2000; vol. 19. National Committee for Clinical Laboratory Standards, Villanova, Pa.]. All drug weights were corrected for salt forms and refer to the pure drug substance.
(§2) All tested strains and Clinical isolates were either purchased from the American Type Culture Collection (ATCC), or from the in-house company culture collection.
(§3) Stock cultures were prepared from broth cultures grown at 35° C. for 18-22 h without agitation and subsequent addition of 5% DMSO (v/v, final concentration) as cryoprotectant and stored frozen in liquid nitrogen. Mueller-Hinton II broth (MHBII) (BBL Cockeysville, Md.) was used for the testing procedure.
(§4) The in vitro activities of the antibiotics were determined by the broth microdilution method and agar dilution technique as recommended by CLSI guidelines. The MIC experiments were performed in duplicate in 96-well microtiter plates using MHB. Serial twofold dilutions of each antibiotic either alone or in combination with a constant amount (4 μg/mL) of a β-lactamase inhibitor were prepared in MHBII broth. A sterile pipette tip was used to mix the contents of each well (one tip was used going from the low to the high concentration in the same column). The bacterial suspension with final inoculum 10^5 CFU/mL was transferred to the test medium containing the antibacterial substances by a multipoint inoculator (Dynatech, Chantilly, Va., USA). The plates were then incubated at 35° C. for 24 h.
(§5) Representative compound of Formula (I) was evaluated against the serine-based Class A β-lactamases including TEM-type, SHV-type extended spectrum β-lactamases (ESBL) and various non-ESBL enzymes of enterobacteriaceae as well as BRO-type enzymes of Moraxella catarrhalis and penicillinases of Staphylococcus aureus.

Another assay concerns E. coli SHV-3. Put plainly: Synergy MIC, inhibitor at 4 μg/mL (Example 3). The assay is classed as cell-based. To be noted: β-lactamase SHV-3 (Table 3 r9), inhibitor constant 4 μg/mL. As to the method: as §1, §2, §3, §4, §5
Another assay deals with E. coli TEM-1. Type of assay: cell-based. To be noted: inhibitor constant 4 μg/mL. Here is the method:
as §1, §2, §3, §4, §5

The next assay has as its system E. coli TEM-3. The assay is classed as cell-based. To be noted: β-lactamase TEM-3 (Table 3 r16), inhibitor constant 4 μg/mL. Here is the method:
as §1, §2, §3, §4, §5

The next assay deals with M. catarrhalis BRO-1. The experiment in a line: Synergy MIC, inhibitor at 4 μg/mL (Example 3). The conditions noted are these: M. catarrhalis, β-lactamase BRO-1 (Table 3 r17); inhibitor constant 4 μg/mL. The assay is classed as cell-based, Moraxella catarrhalis. As to the method:
as §1, §2, §3, §4, §5

For a further assay, the system named is M. catarrhalis BRO-2. Put plainly: Synergy MIC, inhibitor at 4 μg/mL (Example 3). To be noted: β-lactamase BRO-2 (Table 3 r18), inhibitor constant 4 μg/mL. Type of assay: cell-based, Moraxella catarrhalis. As to the method:
as §1, §2, §3, §4, §5

The subject of the next assay is S. aureus PC. Put plainly: Synergy MIC, inhibitor at 4 μg/mL (Example 3). Type of assay: cell-based, Staphylococcus aureus. The conditions noted are these: S. aureus, β-lactamase PC, inhibitor constant 4 μg/mL. As to the method: as §1, §2, §3, §4, §5
Assay [1] concerns Enterobacter cloacae CTX-M9. Put plainly: MIC, characterised β-lactamase producing strain (Example 5, Table 7). The assay is classed as cell-based. To be noted: CTXM9, combination at constant concentration ratio (2:1). An excerpt:
(§6) Their MICs were compared with that of cefotaxime, cefotaxime/tazobactam, ceftazidime, ceftazidime/tazobactam, cefepime, cefepime/tazobactam, and piperacillin/tazobactam.

A further assay deals with Escherichia coli CTX-M15. Described as above. The conditions noted are these: CTXM15, combination at constant concentration ratio (2:1). Type of assay: cell-based.
Excerpt: as §6

For a further assay, the system named is Escherichia coli CTX-M9. The description is as above. Type of assay: cell-based. To be noted: CTXM9, combination at constant concentration ratio (2:1).
Excerpt: as §6

For assay [2], the system named is Klebsiella pneumoniae CTX-M14. The description is as above. The assay is classed as cell-based. The conditions noted are these: CTXM14, combination at constant concentration ratio (2:1).
Excerpt: as §6

Assay [3] concerns Klebsiella pneumoniae CTX-M15. Described as above. The assay is classed as cell-based. The conditions noted are these: CTXM15, combination at constant concentration ratio (2:1).
Excerpt: as §6

Assay [4] relates to Klebsiella pneumoniae CTX-M1. The description is as above. Type of assay: cell-based. To be noted: CTXM1, combination at constant concentration ratio (2:1).
Excerpt: as §6

A further assay deals with Klebsiella oxytoca LXA-1. Put plainly: MIC, characterised β-lactamase producing strain (Example 5, Tables 5-7). The assay is classed as cell-based. To be noted: Klebsiella oxytoca LXA-1, functional group 2b; LK-157 in combination constant 4 μg/mL.

The MIC is the least concentration at which growth counts as inhibited. Consider `CO/N=C(\C(=O)N[C@@H]1C(=O)N2C(C(=O)O)=C(COC(C)=O)CS[C@H]12)c1csc(N)n1` [cefotaxime], for which the MIC was 25.6 µg/mL with C. freundii SHV-5 and 0.031 µg/mL in the assay on Escherichia coli TEM-30.
For the molecule `CC(C)(O/N=C(\C(=O)N[C@@H]1C(=O)N2C(C(=O)[O-])=C(C[n+]3ccccc3)CS[C@H]12)c1csc(N)n1)C(=O)O` [ceftazidime], the MIC was above 25.6 µg/mL in the assay on E. cloacae SHV-12; 1.6 µg/mL in the assay on E. coli SHV-3; 0.2 µg/mL in the assay on E. coli TEM-1 (β-lactamase TEM-1, first listed (Table 3 r14)); 3.2 µg/mL in the assay on E. coli TEM-1 (β-lactamase TEM-1, second listed (Table 3 r15)); above 25.6 µg/mL with E. coli TEM-3; 0.2 µg/mL in the assay with M. catarrhalis BRO-1. The MIC came out at 0.05 µg/mL with M. catarrhalis BRO-2; 12.8 µg/mL with S. aureus PC (first listed (Table 3 r19)); 25.6 µg/mL in the assay on S. aureus PC (second listed (Table 3 r20)); 0.5 µg/mL in assay [1]; 32 µg/mL with Escherichia coli CTX-M15; 2 µg/mL with Escherichia coli CTX-M9. Besides, the MIC is 8 µg/mL in assay [2], 32 µg/mL in assay [3] and 16 µg/mL in assay [4].
Regarding `CO/N=C(\C(=O)N[C@@H]1C(=O)N2C(C(=O)[O-])=C(C[N+]3(C)CCCC3)CS[C@H]12)c1csc(N)n1` [cefepime], the MIC in the assay on Klebsiella oxytoca LXA-1 came out at 0.125 µg/mL.
